This test concerns the target HPK1 (MAP4K1) (Homo sapiens, UniProt Q92918). In words: FRET Assay for HPK1 (MAP4K1): one step binding assay, displacement of labeled tracer. The following applies: for inhibition at 1 µM: 1 μM compound; for inhibition at 1 µM / inhibition at 10 µM: FRET ratio 665/620, percent of control; for inhibition at 10 µM: 10 μM compound; for IC50: dose response curve, nonlinear regression. The procedure, abridged: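 TR-FRET tracer-displacement binding assay. GST-tagged HPK1 (10 nM) and Eu-anti-GST antibody (4 nM) were pre-incubated with compound on ice for 15 min in 50 mM HEPES pH 7.5, 10 mM MgCl2, 1 mM EGTA, 0.01% Brij-35 (3% DMSO final). Kinase Tracer 222 (20 nM) was then added for 1 h at room temperature. IC50 came from nonlinear regression of percent of control; percent inhibition was also given at 1.0 and 10.0 μM.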

This is an account of results in patent publication US20230009626A1 (ICHNOS SCIENCES S.A., priority 2018, published 2023).

Some results are limits rather than exact numbers.

Sequence of HPK1 (MAP4K1) (Q92918 whole entry): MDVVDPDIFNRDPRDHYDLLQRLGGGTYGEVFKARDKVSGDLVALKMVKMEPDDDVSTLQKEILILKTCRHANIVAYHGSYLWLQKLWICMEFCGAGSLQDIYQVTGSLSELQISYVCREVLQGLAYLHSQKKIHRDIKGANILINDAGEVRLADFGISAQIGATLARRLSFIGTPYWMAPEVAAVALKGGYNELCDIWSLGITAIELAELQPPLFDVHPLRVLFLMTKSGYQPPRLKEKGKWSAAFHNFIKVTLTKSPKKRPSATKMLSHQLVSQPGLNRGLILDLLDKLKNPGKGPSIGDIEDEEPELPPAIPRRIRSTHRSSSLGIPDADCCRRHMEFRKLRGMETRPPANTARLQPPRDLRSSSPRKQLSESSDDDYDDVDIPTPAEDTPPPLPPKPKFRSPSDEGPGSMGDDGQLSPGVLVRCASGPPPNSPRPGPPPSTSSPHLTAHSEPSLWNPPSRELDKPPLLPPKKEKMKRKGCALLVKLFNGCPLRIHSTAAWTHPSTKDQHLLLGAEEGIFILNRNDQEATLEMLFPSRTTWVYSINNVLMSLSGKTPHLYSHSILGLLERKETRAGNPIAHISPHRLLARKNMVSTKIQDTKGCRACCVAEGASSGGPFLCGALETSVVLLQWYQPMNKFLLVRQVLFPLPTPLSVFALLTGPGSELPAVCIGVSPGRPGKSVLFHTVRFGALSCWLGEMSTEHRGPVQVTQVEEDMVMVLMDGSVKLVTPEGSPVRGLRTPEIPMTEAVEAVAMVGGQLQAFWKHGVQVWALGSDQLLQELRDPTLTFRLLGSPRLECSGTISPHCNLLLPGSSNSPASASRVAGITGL

For the molecule `C/C(Nc1ccn(CC(=O)N2CCOCC2)n1)=C1/C(=O)Nc2cnc(-c3cnccc3C)cc21` [Example 131, (Z)-5-(4-Methylpyridin-3-yl)-3-(1-((1-(2-morpholino-2-oxoethyl)-1H-pyrazol-3-yl)amino)ethylidene)-1H-pyrrolo[2,3-c]pyridin-2(3H)-one], the inhibition (commonly the share of the control response that was lost under treatment) at 1 µM is 82.2%; the inhibition at 10 µM was determined as 83.7%; the IC50 (as a rule, the midpoint of a concentration-inhibition curve) was less than 50 nM.

Consider `COc1cccc(F)c1-c1ccc2c(c1)/C(=C(\C)Nc1ccc(N(C)C(=O)CN3CCN(C)CC3)cc1)C(=O)N2` [Example 7, (Z)-N-(4-((1-(5-(2-Fluoro-6-methoxyphenyl)-2-oxoindolin-3-ylidene)ethyl)amino)phenyl)-N-methyl-2-(4-methylpiperazin-1-yl)acetamide], for which the inhibition at 1 µM amounted to 82.4%, the inhibition at 10 µM amounted to 87.1% and the IC50 was less than 50 nM.

On to `C/C(Nc1cnn(CC(F)(F)F)c1)=C1/C(=O)Nc2cnc(-c3cnccc3C)cc21` [Example 69, (Z)-5-(4-Methylpyridin-3-yl)-3-(1-((1-(2,2,2-trifluoroethyl)-1H-pyrazol-4-yl)amino)ethylidene)-1H-pyrrolo[2,3-c]pyridin-2(3H)-one], for which the inhibition at 1 µM amounted to 67% and the inhibition at 10 µM was 65.5%.

For the molecule `C/C(Nc1cc(C)n(C)n1)=C1/C(=O)Nc2cnc(-c3cc(F)ccc3C)cc21` [Example 210, (Z)-3-(1-((1,5-Dimethyl-1H-pyrazol-3-yl)amino)ethylidene)-5-(5-fluoro-2-methylphenyl)-1H-pyrrolo[2,3-c]pyridin-2(3H)-one], the inhibition at 1 µM was 70.8% and the IC50 is less than 50 nM.

As to `C/C(Nc1cc(C(C)(C)O)n(C)n1)=C1/C(=O)Nc2cnc(-c3cnccc3C)cc21` [Example 150, (Z)-3-(1-((5-(2-Hydroxypropan-2-yl)-1-methyl-1H-pyrazol-3-yl)amino)ethylidene)-5-(4-methylpyridin-3-yl)-1H-pyrrolo[2,3-c]pyridin-2(3H)-one], the inhibition at 1 µM came out at 86.7%, the inhibition at 10 µM was determined as 86.1% and the half-inhibitory concentration (IC50) is less than 50 nM.

For `C/C(Nc1ccn(C2COC2)n1)=C1/C(=O)Nc2cnc(-c3cnccc3C)cc21` [Example 76, (Z)-5-(4-Methylpyridin-3-yl)-3-(1-((1-(oxctan-3-yl)-1H-pyrazol-3-yl)amino)ethylidene)-1H-pyrrolo[2,3-c]pyridin-2(3H)-one], the inhibition at 1 µM came to 70.3%, the inhibition at 10 µM was determined as 69% and the half-inhibitory concentration (IC50) was less than 50 nM.

On to `COc1cccc(F)c1-c1ccc2c(c1)/C(=C(\C)Nc1ccn(C)n1)C(=O)N2` [Example 18, (Z)-5-(2-Fluoro-6-methoxyphenyl)-3-(1-((1-methyl-1H-pyrazol-3-yl)amino)ethylidene)indolin-2-one], for which the inhibition at 1 µM was determined as 89.8%, the inhibition at 10 µM worked out at 85.4% and the IC50 was less than 50 nM.

`C/C(Nc1ccn(C)n1)=C1/C(=O)Nc2cc(C#N)c(-c3cnccc3C)cc21` [Example 139, (Z)-3-(1-((1-Methyl-1H-pyrazol-3-yl)amino)ethylidene)-5-(4-methylpyridin-3-yl)-2-oxoindoline-6-carbonitrile]: the inhibition at 1 µM turned out to be 77%, the inhibition at 10 µM turned out to be 84.5% and the half-maximal inhibitory concentration (IC50) was less than 50 nM.

Turning to `COc1cccc(F)c1-c1cc2c(cc1Cl)NC(=O)/C2=C(/C)Nc1cnn(C)c1` [Example 20], the inhibition at 1 µM came to 85.2%, the inhibition at 10 µM stood at 80.1% and the IC50 is less than 50 nM.

Turning to `C/C(Nc1cc(C)n(C(C)(C)C#N)n1)=C1/C(=O)Nc2cnc(-c3c(C)cccc3F)cc21` [Example 207, (Z)-2-(3-((1-(5-(2-Fluoro-6-methylphenyl)-2-oxo-1H-pyrrolo[2,3-c]pyridin-3(2H)-ylidene)ethyl)amino)-5-methyl-1H-pyrazol-1-yl)-2-methylpropanenitrile], the inhibition at 1 µM turned out to be 73.8% and the half-inhibitory concentration (IC50) is less than 50 nM.

As to `C/C(Nc1cnn([C@@H](C)C#N)c1)=C1/C(=O)Nc2cnc(-c3cnccc3C)cc21` [Example 167, (S,Z)-2-(4-((1-(5-(4-Methylpyridin-3-yl)-2-oxo-1H-pyrrolo[2,3-c]pyridin-3(2H)-ylidene)ethyl)amino)-1H-pyrazol-1-yl)propanenitrile], the inhibition at 1 µM is 69.2%, the inhibition at 10 µM was 67.5% and the 50% inhibitory concentration (IC50) is less than 50 nM.

As for `C/C(Nc1cnn(C)c1)=C1/C(=O)Nc2cnc(-c3cncc4c3OCC(=O)N4)cc21` [Example 85, (Z)-8-(3-(1-((1-Methyl-1H-pyrazol-4-yl)amino)ethylidene)-2-oxo-2,3-dihydro-1H-pyrrolo[2,3-c]pyridin-5-yl)-2H-pyrido[4,3-b][1,4]oxazin-3(4H)-one], the inhibition at 1 µM turned out to be 78.2% and the IC50 is less than 50 nM.

Take `C/C(Nc1cnn(C(C)(C)C#N)c1)=C1/C(=O)Nc2cnc(-c3cnccc3C)cc21` [Example 53, (Z)-2-Methyl-2-(4-((1-(5-(4-methylpyridin-3-yl)-2-oxo-1H-pyrrolo[2,3-c]pyridin-3(2H)-ylidene)ethyl)amino)-1H-pyrazol-1-yl)propanenitrile]: the inhibition at 1 µM amounted to 87.1%, the inhibition at 10 µM turned out to be 85.4% and the concentration for half-maximal inhibition (IC50) is less than 50 nM.

With `COc1cccc(F)c1-c1cc2c(cn1)NC(=O)/C2=C(/C)Nc1cnn(C[C@H](C)O)c1` [Example 173, (S,Z)-5-(2-Fluoro-6-methoxyphenyl)-3-(1-((1-(2-hydroxypropyl)-1H-pyrazol-4-yl)amino)ethylidene)-1H-pyrrolo[2,3-c]pyridin-2(3H)-one], the inhibition at 1 µM was 66.8%, the inhibition at 10 µM came out at 77.4% and the IC50 was less than 50 nM.

Regarding `C/C(Nc1ccc(N2CCN(C)CC2)cc1)=C1/C(=O)Nc2ccc(F)cc21` [Example 6, (Z)-5-Fluoro-3-(1-((4-(4-methylpiperazin-1-yl)phenyl)amino)ethylidene)indolin-2-one], the inhibition at 1 µM was found to be 85.5%, the inhibition at 10 µM came out at 87.3% and the 50% inhibitory concentration (IC50) was less than 50 nM.

As to `C/C(Nc1cnn(CCC(C)(C)O)c1)=C1/C(=O)Nc2cnc(-c3cnccc3C)cc21` [Example 166, (Z)-3-(1-((1-(3-Hydroxy-3-methylbutyl)-1H-pyrazol-4-yl)amino)ethylidene)-5-(4-methylpyridin-3-yl)-1H-pyrrolo[2,3-c]pyridin-2(3H)-one], the inhibition at 1 µM is 62.9%, the inhibition at 10 µM worked out at 75.7% and the half-maximal inhibitory concentration (IC50) was less than 50 nM.

On to `C/C(Nc1cnn(C[C@H](C)O)c1)=C1/C(=O)Nc2cnc(-c3cnccc3C)cc21` [Example 156, (S,Z)-3-(1-((1-(2-Hydroxypropyl)-1H-pyrazol-4-yl)amino)ethylidene)-5-(4-methylpyridin-3-yl)-1H-pyrrolo[2,3-c]pyridin-2(3H)-one], for which the inhibition at 1 µM is 60.6%, the inhibition at 10 µM was 80% and the concentration for half-maximal inhibition (IC50) fell in the range of 50 to 100 nM.

In the case of `C/C(Nc1cc2n(n1)CCOC2)=C1/C(=O)Nc2cnc(-c3c(C)cccc3F)cc21` [Example 192, (Z)-3-(1-((6,7-Dihydro-4H-pyrazolo[5,1-c][1,4]oxazin-2-yl)amino)ethylidene)-5-(2-fluoro-6-methylphenyl)-1H-pyrrolo[2,3-c]pyridin-2(3H)-one], the inhibition at 1 µM was 62.1%, the inhibition at 10 µM was 68.3% and the 50% inhibitory concentration (IC50) is less than 50 nM.

With `C/C(NCCN1CCOCC1)=C1/C(=O)Nc2cnc(-c3cnccc3C)cc21` [Example 86, (Z)-5-(4-Methylpyridin-3-yl)-3-(1-((2-morpholinoethyl)amino)ethylidene)-1H-pyrrolo[2,3-c]pyridin-2(3H)-one], the inhibition at 1 µM was 51.5%, the inhibition at 10 µM was determined as 74% and the IC50 was more than 500 nM.

For `C/C(Nc1ccn(C)n1)=C1/C(=O)Nc2cnc(-c3cncc4c3OCC(=O)N4)cc21` [Example 138, (Z)-8-(3-(1-((1-Methyl-1H-pyrazol-3-yl)amino)ethylidene)-2-oxo-2,3-dihydro-1H-pyrrolo[2,3-c]pyridin-5-yl)-2H-pyrido[4,3-b][1,4]oxazin-3(4H)-one], the inhibition at 1 µM stood at 90.7% and the IC50 is less than 50 nM.

Regarding `C/C(Nc1ccn(C[C@@H](C)O)n1)=C1/C(=O)Nc2cnc(-c3cnccc3C)cc21` [Example 136, (R,Z)-3-(1-((1-(2-Hydroxypropyl)-1H-pyrazol-3-yl)amino)ethylidene)-5-(4-methylpyridin-3-yl)-1H-pyrrolo[2,3-c]pyridin-2(3H)-one], the inhibition at 1 µM is 82.3%, the inhibition at 10 µM amounted to 78.9% and the IC50 was less than 50 nM.

For `C/C(Nc1ccc(N2CCN(C3COC3)CC2)nc1)=C1/C(=O)Nc2ccc(F)cc21` [Example 5, (Z)-5-Fluoro-3-(1-((6-(4-(oxetan-3-yl)piperazin-1-yl)pyridin-3-yl)amino)ethylidene)indolin-2-one], the inhibition at 1 µM stood at 76.1%, the inhibition at 10 µM amounted to 85.5% and the IC50 fell in the range of 100 to 500 nM.

Regarding `C/C(Nc1cnn(C[C@@H](C)O)c1)=C1/C(=O)Nc2cnc(-c3cnccc3C)cc21` [Example 153, (R,Z)-3-(1-((1-(2-Hydroxypropyl)-1H-pyrazol-4-yl)amino)ethylidene)-5-(4-methylpyridin-3-yl)-1H-pyrrolo[2,3-c]pyridin-2(3H)-one], the inhibition at 1 µM was determined as 72.5%, the inhibition at 10 µM was 80.9% and the 50% inhibitory concentration (IC50) was less than 50 nM.

With `C/C(Nc1cc(C)n(CC(F)F)n1)=C1/C(=O)Nc2cnc(-c3cnccc3C)cc21` [Example 170, (Z)-3-(1-((1-(2,2-Difluoroethyl)-5-methyl-1H-pyrazol-3-yl)amino)ethylidene)-5-(4-methylpyridin-3-yl)-1H-pyrrolo[2,3-c]pyridin-2(3H)-one], the inhibition at 1 µM came to 70.1%, the inhibition at 10 µM was 70.3% and the half-inhibitory concentration (IC50) was less than 50 nM.
